Data: PubChem BioAssay (NCI)
Where “and” joins values, the source holds several entries; their conditions need not be identical. Equal entries are not always repeated.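 Grown in 96-well plates, cells were treated for 48 hours with each compound at five concentrations. Insufficient inhibition: endpoint recorded as highest concentration tested. Abbreviation: GI50, concentration required for 50% inhibition of growth. TGI: concentration producing complete growth inhibition.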

What was measured:
Test in all cases: growth of human tumour cells (NCI), 48 h
BT-549 breast = system: BT-549 breast
DU-145 prostate = system: DU-145 prostate
HS 578T breast = system: HS 578T breast
M14 melanoma = system: M14 melanoma
HT29 colon = system: HT29 colon
TK-10 renal = system: TK-10 renal
UACC-257 melanoma = system: UACC-257 melanoma
KM12 colon = system: KM12 colon

Structure (SMILES)	GI50 (BT-549 breast)	TGI (BT-549 breast)	GI50 (DU-145 prostate)	TGI (DU-145 prostate)	GI50 (HS 578T breast)	TGI (HS 578T breast)	GI50 (M14 melanoma)	TGI (M14 melanoma)	GI50 (HT29 colon)	TGI (HT29 colon)	GI50 (TK-10 renal)	TGI (TK-10 renal) [µM]	GI50 (UACC-257 melanoma)	TGI (UACC-257 melanoma)	GI50 (KM12 colon)	TGI (KM12 colon)
CCC1=C[C@@H]2CN(C1)Cc1c([nH]c3ccccc13)[C@@](C(=O)OC)(c1cc3c(cc1OC)N(C)[C@H]1[C@@](O)(C(=O)OC)[C@H](OC(C)=O)[C@]4(CC)C=CCN5CC[C@]31[C@@H]54)C2	< 0.0107 µM	8.82 µM	< 0.01 µM	< 0.01 µM	< 0.01 µM	9.59 µM	0.0103 µM	1.01 µM	< 0.01 µM	> 41.6 µM	0.641 µM	16.7	–	–	–	–
NC(=O)c1cc(I)ccc1NC(=O)/C=C/c1ccccc1Cl	0.816 µM	94.7 µM	0.837 µM	5.64 µM	0.34 µM	2.19 µM	0.621 µM	24.8 µM	0.362 µM	14.5 µM	2.48 µM	–	38.7 µM	> 100 µM	0.442 µM	4.9 µM
Cc1cc(I)cc(CNCCN2CCOCC2)c1O	15.4 µM	61.3 µM	26.3 µM	> 100 µM	> 100 µM	> 100 µM	26.9 µM	> 100 µM	> 100 µM	> 100 µM	> 100 µM	> 100	> 100 µM	> 100 µM	86.8 µM	> 100 µM
O=C(NCCCl)NCCN1c2nc3ccccc3cc2Sc2cc3ccccc3nc21	7.01 µM	> 48.6 µM	3.28 µM	> 39.4 µM	0.962 µM	9.57 µM	1.77 µM	6.73 µM	1.11 µM	8.89 µM	7.12 µM	28.1	1.37 µM	6.55 µM	2.67 µM	16.1 µM
CN(C)c1ccc(/C=C(\C#N)c2ccccc2)cc1	0.121 µM and 0.794 µM and 0.621 µM	–	0.617 µM and 1.51 µM and 1.48 µM	22.3 µM and > 100 µM	–	–	0.329 µM and 0.344 µM and 0.304 µM	> 100 µM	0.33 µM and 0.352 µM and 0.347 µM	10.9 µM and 71.3 µM	0.553 µM and 0.999 µM and 4.9 µM	> 100	44.7 µM and 57.4 µM	> 100 µM	0.307 µM and 0.425 µM and 0.437 µM	21.8 µM and > 100 µM
COc1ccc(C2CC(c3ccccc3)=NN2C(=O)c2cc(OC)c(OC)c(OC)c2)cc1O (stereo not drawn)	2 µM	21.4 µM	0.479 µM	–	0.316 µM	1.13 µM	0.299 µM	3.99 µM	2.96 µM	8.31 µM	14.7 µM	> 100	22.1 µM	> 54.3 µM	0.371 µM	24.1 µM
O=C1Nc2ccc(O)cc2/C1=C\c1ccncc1	15.2 µM	43.6 µM	19.5 µM	54.2 µM	29.2 µM	97.3 µM	15.8 µM	39.6 µM	–	–	18.6 µM	39.8	13.2 µM	33.3 µM	16.9 µM	46.4 µM
C/C=C(\C)c1cc(=O)c2c(C)cc3c(c2o1)C(OC)(OC(C)=O)c1c(O)c(C2CC(C)(N(C)C)C(OC(C)=O)C(C)O2)cc(C2CC(N(C)C)C(OC(C)=O)C(C)O2)c1C3=O (stereo not drawn)	–	7.47 µM	–	5.08 µM	–	7.63 µM	–	–	–	> 20.4 µM	–	> 100	–	–	–	8.24 µM
COc1cccc(CCNC(=O)CC(c2ccccc2)(c2ccccc2)c2ccccc2)c1	> 100 µM	> 100 µM	26.8 µM	> 100 µM	> 100 µM	> 100 µM	–	–	–	–	21.9 µM	82.2	–	–	4.75 µM	> 100 µM
[N-]=[N+]=NCCCn1c2c(c3ccc([N+](=O)[O-])cc3c1=O)C(=O)c1cc(I)ccc1-2	–	–	1.78 µM	6.95 µM	28 µM	> 100 µM	3.29 µM	22.4 µM	10.7 µM	> 100 µM	71.9 µM	> 100	26.7 µM	> 100 µM	18 µM	> 100 µM
COc1ccc(C2=NN(C=O)C(c3ccc(OS(=O)(=O)c4ccc(C)cc4)c(OC)c3)C2)cc1 (stereo not drawn)	3.35 µM	58.1 µM	74.9 µM	> 100 µM	5.66 µM	88.3 µM	3.92 µM	> 100 µM	–	–	> 100 µM	> 100	4.22 µM	> 100 µM	9.23 µM	> 100 µM
COc1ccc(N=N/C(=N\NC(=O)c2cc(Br)ccc2O)c2ccc(N(CCC#N)CCC#N)cc2OC)cc1	> 150 µg/mL	> 150 µg/mL	82 µg/mL	> 150 µg/mL	82.5 µg/mL	> 150 µg/mL	83.7 µg/mL	> 150 µg/mL	40.9 µg/mL	118 µg/mL	–	–	> 150 µg/mL	> 150 µg/mL	44.6 µg/mL	128 µg/mL
COc1ccc(CN2C(=O)/C(=C\C(=O)c3ccc(OCCN4CCCC4)cc3)c3ccccc32)cc1	10.6 µM	23.3 µM	2.32 µM	5.65 µM	14.3 µM	54.6 µM	2.25 µM	5.34 µM	–	–	1.74 µM	3.33	20.2 µM	40.3 µM	11.1 µM	34.7 µM
c1ccc(COCC[P+](c2ccccc2)(c2ccccc2)c2ccccc2)cc1	0.953 µM	15.5 µM	2.01 µM	26.2 µM	2.81 µM	17.9 µM	2.12 µM	13.4 µM	0.478 µM	8.3 µM	–	–	0.378 µM	3.77 µM	0.501 µM	11.1 µM
COc1ccc(NC(=S)C#N)cc1	–	> 100 µM	–	> 100 µM	–	–	–	> 100 µM	–	> 100 µM	–	> 100	–	> 100 µM	–	> 100 µM
Cc1cc2c(C(=O)NCC#N)cccc2n1-c1nc2c(c(NCc3ccccc3)n1)CCCC2	0.251 µM	0.7 µM	0.384 µM	2.48 µM	0.386 µM	47.5 µM	0.22 µM	0.532 µM	0.303 µM	1.05 µM	0.331 µM	0.976	–	–	0.242 µM	0.643 µM
